PubChem BioAssay (NCI)
Values joined by “and” are separate entries in the source; they are usually repeats but may differ in a detail not shown here. Equal values may be shown once.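 Exposure lasted 48 hours, with cells grown in 96-well plates and compounds tested at five concentrations. GI50 marks 50% less growth. TGI is the concentration that stops growth completely.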 *1 amine or outer side, *2 acyl side, *3 side chain or, on linkers, in order; H or OH if unused. Where a SMILES comes first, the peptide text is derived from it. Bridges are numbered along the chain shown (N, C = ends). [ ]: non-standard residue; d: D form. The star is where a group is joined. Phe(3-Me) = Cc1cccc(C[C@H](N)C(=O)O)c1; NH(4-Cl-2-F-phenyl) = Fc1cc(Cl)ccc1N*; Pro(4R-Me) = C[C@H]1CN[C@H](C(=O)O)C1; Propanoyl(3-NMe2) = CN(C)CCC(=O)*; Hyp = O=C(O)[C@@H]1C[C@@H](O)CN1; aThr = C[C@H](O)[C@H](N)C(=O)O; Pip = O=C(O)[C@@H]1CCCCN1; CO = O=C([*:1])[*:2]

Experiments:
Test in all cases: NCI-60 cell line screen, 48 h
UO-31 renal = test system: UO-31 renal
IGROV1 ovarian = test system: IGROV1 ovarian
HCT-116 colon = test system: HCT-116 colon
RXF 393 renal = test system: RXF 393 renal
MDA-MB-435 = test system: MDA-MB-435
COLO 205 colon = test system: COLO 205 colon
HT29 colon = test system: HT29 colon
SK-MEL-28 melanoma = test system: SK-MEL-28 melanoma
CAKI-1 renal = test system: CAKI-1 renal
SN12C renal = test system: SN12C renal

Row | SMILES | GI50 (UO-31 renal) | TGI (UO-31 renal) | GI50 (IGROV1 ovarian) | TGI (IGROV1 ovarian) [µM] | GI50 (HCT-116 colon) | TGI (HCT-116 colon) | GI50 (RXF 393 renal) | TGI (RXF 393 renal) | GI50 (MDA-MB-435) [µM] | TGI (MDA-MB-435) [µM] | GI50 (COLO 205 colon) [µM] | TGI (COLO 205 colon) [µM] | GI50 (HT29 colon) [µM] | TGI (HT29 colon) [µM] | GI50 (SK-MEL-28 melanoma) [µM] | TGI (SK-MEL-28 melanoma) [µM] | GI50 (CAKI-1 renal) | TGI (CAKI-1 renal) [µM] | GI50 (SN12C renal) | TGI (SN12C renal) [µM]
1 | CCN1CCN(C(=O)[C@]23CCC(C)(C)C[C@@H]2C2=CC[C@@H]4[C@@]5(C)C/C(=C/c6cccnc6)C(=O)C(C)(C)[C@@H]5CC[C@@]4(C)[C@]2(C)CC3)CC1 | 1.35 µM | 2.67 µM | 1.91 µM | 4.16 | 1.01 µM | 2.22 µM | 1.42 µM | 2.77 µM | 1.48 | 3.11 | 1.89 | 4.74 | 1.71 | 4.67 | 1.48 | 2.83 | 2.08 µM | 11.8 | 1.22 µM | 2.54
2 | Cc1ccccc1/C=C1\CN(C(=O)OC(C)(C)C)C/C(=C\c2ccccc2C)C1=O | 1.63 µM | 3.09 µM | 2.26 µM | 6.26 | 1.9 µM | 4.57 µM | 1.66 µM | 3.21 µM | 2.51 | 5.45 | 2.22 | 5.25 | 2.86 | 7.61 | 2.8 | 6.43 | 2.06 µM | 4.25 | 2.7 µM | 6.43
3 | CC(C)[C@@H]1CC[C@@H]2[C@@H]1[C@H](OC(=O)/C=C/c1ccccc1)[C@]1(C(C)C)C[C@@H](OC(=O)CO)[C@@]2(C)O1 | 0.011 µM | 0.0857 µM | 6.79 µM | 12.5 | 5.79 µM | 11.3 µM | 3.31 µM | 8.31 µM | 5.65 | 10.6 | 6.12 | 12.8 | 6.92 | 14.4 | 4.89 | 9.87 | 0.133 µM | 6.73 | 3.39 µM | 8.04
4 | Nc1c(C(=O)Nc2ccccc2)sc2nc3c(cc12)CCCC3 | 1.48 µM | > 100 µM | 2.64 µM | > 100 | 0.49 µM | > 100 µM | 0.744 µM | 8.17 µM | 0.172 | 0.415 | 1.24 | 13.8 | 0.74 | > 26.3 | 14.7 | > 100 | 1.13 µM | > 100 | 1.23 µM | > 100
5 | C[n+]1ccc(-c2c3nc(c(-c4ccc5c(ccc[n+]5C)c4)c4ccc([nH]4)c(-c4cc[n+](C)cc4)c4nc(c(-c5ccc6c(ccc[n+]6C)c5)c5ccc2[nH]5)C=C4)C=C3)cc1 | 19.9 µM | > 50 µM | > 50 µM | > 50 | > 50 µM | > 50 µM | 13.9 µM | > 50 µM | 12.9 | 36.9 | 23.1 | > 50 | > 50 | > 50 | 28.5 | > 50 | > 50 µM | > 50 | > 50 µM | > 50
6 | NC[C@@](O)(c1ccc(Cl)cc1)c1ccc(-c2cn[nH]c2)cc1 | 0.583 µM and 0.747 µM | – | 0.43 µM and 0.272 µM | 1.46 | 1.44 µM | 3.19 µM | 0.298 µM and 0.328 µM | 2.51 µM and 2.05 µM | 1.81 | 3.61 | 1.48 | 3.18 | 1.98 | 7.26 | 3.97 | > 10 | 0.73 µM and 1.27 µM | – | 2.39 µM and 1.88 µM | > 100
7 | CC/C=C\C/C=C\C[C@H]1C/C=C2/C(=O)C=C[C@H]2C/C=C\CCC(=O)O1 | 2.23 µM | 4.96 µM | 3.71 µM | 11.8 | 3.63 µM | > 14.3 µM | 2.28 µM | 4.61 µM | 3.03 | 8.91 | 3.11 | 6.71 | 2.55 | 6.49 | 3.12 | 8.01 | 3.13 µM | 8.58 | 3.46 µM | 8.77
8 | Cn1c(=S)sc2nc3ccccc3n2c1=S | – | 18.8 µM | – | 30.9 | – | 17.9 µM | – | 27.4 µM | – | 35.5 | – | 25.9 | – | 25.8 | – | 25.1 | – | 39.2 | – | 39.1
9 | Cc1cccc(C[C@H](NC(=O)Nc2ccc(Cl)cc2F)C(=O)N[C@@H]2C(=O)N3C[C@H](OC(=O)CCN(C)C)C[C@H]3C(=O)N3CCCC[C@H]3C(=O)N[C@@H](C)C(=O)N3C[C@H](C)C[C@H]3C(=O)O[C@H]2C)c1 ({NH(4-Cl-2-F-phenyl)-CO}-[Phe(3-Me)][aThr][Hyp](Propanoyl(3-NMe2))[Pip]A[Pro(4R-Me)]; ester 2-C) | 2.17 µM | 7.13 µM | 0.94 µM | 2.46 | 0.408 µM | 1.62 µM | 1.23 µM | 2.85 µM | 0.432 | 1.65 | 0.355 | 1.43 | 0.526 | 2.82 | 0.706 | 2.1 | 0.978 µM | 3.59 | 0.371 µM | 2.18
10 | COc1ccc(Cn2c(Br)c3c(c2-c2cc(OC)c(OC)c(OC)c2)CCc2sc(NC(C)=O)nc2-3)cc1 | 3.69 µM | 35.1 µM | 4.46 µM | > 100 | 3.4 µM | 14.6 µM | 2.24 µM | 10.7 µM | 0.613 | 4.36 | 2.53 | 5.78 | 3.41 | 11.1 | 5.09 | > 100 | 4.21 µM | > 100 | 4.99 µM | > 100
11 | O=C(Nc1ccc(Br)cc1F)c1cc(Br)ccc1O | 0.4 µM | 2.8 µM | 0.4 µM | 15.3 | 0.732 µM | 4.28 µM | 0.661 µM | 3.33 µM | 0.846 | 5.63 | 2.95 | 9.11 | 3.08 | 9.71 | 0.4 | 2.13 | 0.456 µM | 4.11 | 0.519 µM | 6.39
12 | CC(=O)OCC1OC(n2c(-c3ccccc3)c(C)c(C)c(C#N)c2=S)C(OC(C)=O)C(OC(C)=O)C1OC(C)=O (configuration not stated) | > 50 µM and 12 µM | > 50 µM and 37.9 µM | – | > 100 | 11.4 µM and 40.1 µM | 21.6 µM and > 100 µM | 23.8 µM and 68.3 µM | > 100 µM | – | > 100 | – | > 100 | – | > 100 | – | > 100 | – | > 50 | 48.3 µM and > 100 µM | > 100
